In the experiment the test system is HEK293 cells. In words: HEK293 VLCFA-LPC IC50 determination (13C-labeled C26:0 LPC by UHPLC/MS). It counts as cell-based, human. The note with it: Homo sapiens, HEK293, HEK293 cells; average of one or more replicates; read-out: Average HEK293 IC50. How it is done: HEK293 cells were treated with compounds, such as those listed in Tables A-E of Example 1, using the representative manual protocols described below. The protocols below were also adapted to a semi-automated protocol using standard methods in the art.
Cell Culture Growth Conditions:
HEK293 cells were maintained in FreeStyle F17 media (Gibco # A13835) supplemented with PenStrep (1%, Gibco #15070-063), Glutamax (2%, Gibco #35050-061), and Pluronic (0.1%, Gibco #24040-032) (“supplemented media”). Suspension cultures were grown in disposable Erlenmeyer flasks at about 120 rpm, 37° C., 5% CO2, and 80% humidity. Cell densities were kept between about 0.5 and 3 million cells per mL, in about 50-200 mL per flask.
Treatment of Cells with Compounds Provided Herein:
The cells were treated with compounds using either a total of 900 uL cell media volume (high-volume assay) or a total of 200 uL cell media volume (low-volume assay). In the high volume assay, 450 μL of supplemented media plus 13C-acetate (1.0 mg/mL, Sigma Aldrich #282014) were added to 0.5 μL of a compound (such as those in Tables A-E) in DMSO in a polypropylene v-bottom plate (Costar #3363) in 1 of 3 dilution schemes. The contents of each well were mixed and transferred to a sterile polypropylene deep-well v-bottom plate (Costar #3960). 450 μL of cultured HEK293 cells in supplemented media at a density of 1.0 million cells/mL was added to each well. In the low volume assay, 100 μL of supplemented media plus 13C-acetate (1.0 mg/mL, Sigma Aldrich #282014) were added to either 0.1 μL or 1.0 uL of a compound (such as those in Tables A-E) in DMSO in a polypropylene v-bottom plate (Costar #3363) in 1 of 3 dilution schemes. 100 μL of cultured HEK293 cells in supplemented media at a density of 1.0 million cells/mL was added to each well. The high volume and low volume plates were sealed with either AirPore Tape Sheets (Qiagen #19571) or Duetz plate covers to control evaporation and placed into a shaking incubator at 225 rpm, 37° C., 5% CO2, and 80% humidity for 48 hours. For both the high and low volume assays the 3 dilution schemes used were as follows:
Following incubation, treated cells were harvested by centrifugation at 1690×g for 10 minutes. In the high volume assay 200 uL treated cells were transferred to a polypropylene v-bottom plate (Costar #3363) prior to centrifugation. In the low volume assay the incubation plate was centrifuged directly, without a transfer step. The supernatant was then discarded and the analytes were extracted using 1 of 2 different extraction schemes. In the first scheme, the cell pellet was visibly broken up by mixing the cell pellet up and down in 100 μL of hexane/isopropanol (60:40) 20 times. The resulting mixture was transferred to a 0.45 μm Durapore membrane (Millipore #MSH VN4510) atop a polypropylene v-bottom plate (Costar #3363) and filtered by centrifugation at 1690×g for 5 minutes. 120 μL of n-butanol containing 10 nM C13:0 lysophosphatidylcholine was added to the filtrate as an injection control standard, then the entire volume was transferred to a new Durapore membrane/v-bottom plate. In the second scheme, the cell pellet was visibly broken up by mixing the cell pellet up and down in 180 μL of methanol containing 10 nM C13:0 lysophosphatidylcholine 20 times. The resulting mixture was transferred to a 0.45 μm Durapore membrane (Millipore #MSH VN4510) atop a polypropylene v-bottom plate and filtered by centrifugation at 1690×g for 5 minutes. In both schemes, the plates were then sealed with pierceable capmats (Micronic MP53017) and stored at −20 OC until analyzed.
UHPLC/Mass Spectrometry Readout:
The filtered organic extraction was analyzed with a 1290 Agilent Infinity Series UHPLC coupled to an ABI Sciex QTrap 6500 mass spectrometer. […]

In the case of `O=C(Cc1cc(F)cc(F)c1)Nc1ccn(-c2ccccc2)n1` [Compound 58, 2-(3,5-difluorophenyl)-N-(1-phenylpyrazol-3-yl)acetamide], the IC50 was greater than 5 µM.

On to `O=C(Cc1cc(F)ccc1F)Nc1ccn(-c2ccccc2)n1` [Compound 59, 2-(2,5-difluorophenyl)-N-(1-phenylpyrazol-3-yl)acetamide], for which the IC50 turned out to be 0.25 µM.

Consider `O=C(Cc1cccc(F)c1F)Nc1ccn(-c2ccccc2)n1` [Compound 60, 2-(2,3-difluorophenyl)-N-(1-phenylpyrazol-3-yl)acetamide], for which the IC50 is greater than 2 µM.

With `O=C(Cc1c(F)cccc1F)Nc1ccn(-c2ccccc2)n1` [Compound 61, 2-(2,6-difluorophenyl)-N-(1-phenylpyrazol-3-yl)acetamide], the IC50 is 0.065 µM.

As to `COc1ccc(CC(=O)Nc2ccn(-c3ccccc3)n2)cc1C` [Compound 62, 2-(4-methoxy-3-methyl-phenyl)-N-(1-phenylpyrazol-3-yl)acetamide], the IC50 was 3.7 µM.

Consider `COc1ccc(CC(=O)Nc2ccn(-c3ccccc3)n2)cc1F` [Compound 63, 2-(3-fluoro-4-methoxy-phenyl)-N-(1-phenylpyrazol-3-yl)acetamide], for which the IC50 was greater than 5 µM.

Take `O=C(Cc1ccc(F)c(Cl)c1)Nc1ccn(-c2ccccc2)n1` [Compound 64, 2-(3-chloro-4-fluoro-phenyl)-N-(1-phenylpyrazol-3-yl)acetamide]: the IC50 is greater than 5 µM.

On to `COc1ccc(CC(=O)Nc2ccn(-c3ccccc3)n2)cc1OC` [Compound 66, 2-(3,4-dimethoxylphenyl)-N-(1-phenylpyrazol-3-yl)acetamide], for which the IC50 amounted to 2.8 µM.

In the case of `O=C(Cc1ccc(Cl)c(Cl)c1)Nc1ccn(-c2ccccc2)n1` [Compound 68, 2-(3,4-dichlorophenyl)-N-(1-phenylpyrazol-3-yl)acetamide], the IC50 is greater than 5 µM.

In the case of `O=C(Cc1cccc(Cl)c1Cl)Nc1ccn(-c2ccccc2)n1` [Compound 69, 2-(2,3-dichlorophenyl)-N-(1-phenylpyrazol-3-yl)acetamide], the IC50 was found to be 5 µM.

Consider `O=C(Cc1c(Cl)cccc1Cl)Nc1ccn(-c2ccccc2)n1` [Compound 70, 2-(2,6-dichlorophenyl)-N-(1-phenylpyrazol-3-yl)acetamide], for which the IC50 is greater than 2 µM.

With `O=C(Cc1ccc(F)c(C(F)(F)F)c1)Nc1ccn(-c2ccccc2)n1` [Compound 71, 2-[4-fluoro-3-(trifluoromethyl)phenyl]-N-(1-phenylpyrazol-3-yl)acetamide], the IC50 was greater than 5 µM.

Regarding `O=C(Cc1cc(F)cc(C(F)(F)F)c1)Nc1ccn(-c2ccccc2)n1` [Compound 72, 2-[3-fluoro-5-(trifluoromethyl)phenyl]-N-(1-phenylpyrazol-3-yl)acetamide], the IC50 was greater than 5 µM.

Turning to `O=C(Cc1cc(C(F)(F)F)cc(C(F)(F)F)c1)Nc1ccn(-c2ccccc2)n1` [Compound 73, 2-[3,5-bis(trifluoromethyl)phenyl]-N-(1-phenylpyrazol-3-yl)acetamide], the IC50 was greater than 5 µM.

For the molecule `O=C(Cc1ccc(F)c(F)c1F)Nc1ccn(-c2ccccc2)n1` [Compound 74, N-(1-phenylpyrazol-3-yl)-2-(2,3,4-trifluorophenyl)acetamide], the IC50 was greater than 5 µM.

As for `O=C(Cc1cc(F)c(F)cc1F)Nc1ccn(-c2ccccc2)n1` [Compound 75, N-(1-phenylpyrazol-3-yl)-2-(2,4,5-trifluorophenyl)acetamide], the IC50 is greater than 2 µM.

`O=C(Cc1c(F)cc(F)cc1F)Nc1ccn(-c2ccccc2)n1` [Compound 76, N-(1-phenylpyrazol-3-yl)-2-(2,4,6-trifluorophenyl)acetamide]: the IC50 turned out to be 0.072 µM.

On to `Cc1ccc(C(C)C(=O)Nc2ccn(-c3ccccc3)n2)cc1` (stereo not drawn) [Compound 77, N-(1-phenylpyrazol-3-yl)-2-(p-tolyl)propanamide], for which the IC50 was found to be 3.3 µM.

For `CC(C)Cc1ccc(C(C)C(=O)Nc2ccn(-c3ccccc3)n2)cc1` (stereo not drawn) [Compound 78, 2-(4-isobutylphenyl)-N-(1-phenylpyrazol-3-yl)propanamide], the IC50 was greater than 5 µM.

Take `O=C(Nc1ccn(-c2ccccc2)n1)C1(c2ccc(Cl)cc2)CCCC1` [Compound 79, 1-(4-chlorophenyl)-N-(1-phenylpyrazol-3-yl)cyclopentanecarboxamide]: the IC50 was greater than 5 µM.

For `CC(C(=O)Nc1ccn(-c2ccccc2)n1)c1ccccc1` (stereo not drawn) [Compound 80, 2-phenyl-N-(1-phenylpyrazol-3-yl)propanamide], the IC50 is 0.047 µM.

For `O=C(Nc1ccn(-c2nccs2)n1)C1(c2ccccc2)CC1` [Compound 81, 1-phenyl-N-(1-thiazol-2-ylpyrazol-3-yl)cyclopropanecarboxamide], the IC50 was 0.011 µM.

For `O=C(Nc1ccn(-c2ncccc2F)n1)C1(c2ccccc2)CC1` [Compound 82, N-[1-(3-fluoro-2-pyridyl)pyrazol-3-yl]-1-phenyl-cyclopropanecarboxamide], the 50% inhibitory concentration (IC50) was determined as 0.19 µM.

In the case of `O=C(Cc1ccccc1)Nc1ccn(-c2ccnc(Cl)c2)n1` [Compound 83, N-(1-(2-chloropyridin-4-yl)-1H-pyrazol-3-yl)-2-phenylacetamide], the IC50 was found to be 0.6 µM.

On to `O=C(Nc1ccn(-c2ccnc(Cl)c2)n1)C1(c2ccccc2)CC1` [Compound 84, N-(1-(2-chloropyridin-4-yl)-1H-pyrazol-3-yl)-1-phenylcyclopropane-1-carboxamide], for which the IC50 is 0.061 µM.

Consider `O=C(Nc1ccn(-c2cncnc2)n1)C1(c2ccccc2F)CC1` [Compound 85, 1-(2-fluorophenyl)-N-(1-pyrimidin-5-ylpyrazol-3-yl)cyclopropanecarboxamide], for which the IC50 was 0.095 µM.

As to `O=C(Cc1ccccc1)Nc1ccn(-c2ccccn2)n1` [Compound 86, 2-phenyl-N-[1-(2-pyridyl)pyrazol-3-yl]acetamide], the IC50 was 0.68 µM.

Turning to `O=C(Cc1ccc(F)cc1)Nc1ccn(-c2ncccc2F)n1` [Compound 88, 2-(4-fluorophenyl)-N-[1-(3-fluoro-2-pyridyl)pyrazol-3-yl]acetamide], the IC50 is greater than 5 µM.

For the molecule `O=C(Cc1ccccc1)Nc1ccn(-c2nccs2)n1` [Compound 89, 2-phenyl-N-(1-thiazol-2-ylpyrazol-3-yl)acetamide], the IC50 was 0.34 µM.

Turning to `O=C(Cc1ccccc1F)Nc1ccn(-c2nccs2)n1` [Compound 90, 2-(2-fluorophenyl)-N-(1-thiazol-2-ylpyrazol-3-yl)acetamide], the concentration for half-maximal inhibition (IC50) was determined as 0.35 µM.

On to `O=C(Cc1ccc(F)cc1)Nc1ccn(-c2nccs2)n1` [Compound 91, 2-(4-fluorophenyl)-N-(1-thiazol-2-ylpyrazol-3-yl)acetamide], for which the IC50 stood at 1.9 µM.

As to `O=C(Nc1ccn(-c2nccs2)n1)C1(c2ccccc2F)CC1` [Compound 92, 1-(2-fluorophenyl)-N-(1-thiazol-2-ylpyrazol-3-yl)cyclopropanecarboxamide], the IC50 came to 0.038 µM.

In the case of `O=C(Cc1ccccc1)Nc1ccn(-c2ncccc2F)n1` [Compound 93, N-[1-(3-fluoro-2-pyridyl)pyrazol-3-yl]-2-phenyl-acetamide], the IC50 was greater than 10 µM.

In the case of `O=C(Cc1ccccc1F)Nc1ccn(-c2ncccc2F)n1` [Compound 94, 2-(2-fluorophenyl)-N-[1-(3-fluoro-2-pyridyl)pyrazol-3-yl]acetamide], the IC50 is greater than 10 µM.

As to `O=C(Nc1ccn(-c2ncccc2F)n1)C1(c2ccccc2F)CC1` [Compound 95, 1-(2-fluorophenyl)-N-[1-(3-fluoro-2-pyridyl)pyrazol-3-yl]cyclopropanecarboxamide], the IC50 was determined as 0.39 µM.

As to `O=C(Cc1ccccc1)Nc1ccn(-c2cncnc2)n1` [Compound 96, 2-phenyl-N-(1-pyrimidin-5-ylpyrazol-3-yl)acetamide], the IC50 worked out at 2.4 µM.

As a reminder, the IC50 is the point on the concentration scale where inhibition reaches its midpoint.

Values taken from patent US20180251431A1 (VERTEX PHARMACEUTICALS INCORPORATED, priority 2016, published 2018).
